Data set [1] has as its target T1, CD137 (Homo sapiens, UniProt Q07011). Nature of the data set: CD137 activation. The class given is cell-based.
Data set [2] deals with T1, CD137. Nature of the data set: IL-2 and IFN-γ cytokine secretion. It counts as cell-based.
The test system of data set [3] is MC38 #13 (MC38 cells engineered to express Nectin-4) tumor tissue. Nature of the data set: transcriptional (Nanostring) analysis of MC38 #13 tumors, study with BT7480. It counts as in vivo, huCD137-C57B/6J mice. Particulars: 5 mg/kg i.v. 0 h, 24 h. The protocol:
For the transcriptional and immunohistochemical (IHC) analyses, 6-8 week old female huCD137-C57B/6J mice (Biocytogen) mice were implanted subcutaneously with 1×10^6 MC38 #13 (MC38 cells engineered to express Nectin-4) cells. Mice were randomized into treatment groups when average tumor volumes reached around 255 mm^3 to receive vehicle, BT7480 (BCY00011863), non-binder BCY control BCY00012797 (BCY12797) or αCD137 antibody (urelumab analogue). BT7480 and its non-binding control were dosed intravenously at 5 mg/kg (in 25 mM histidine HCl, 10% sucrose, pH7; Vehicle) at 0 h and 24 h and urelumab analogue was dosed intraperitoneally at 2 mg/kg in PBS BIW (0 h, 72 h) dose and schedule. Tumors from BT7480-treated mice were harvested at 24 h (after the 0 h dose), 48 h (24 h after the last of 0 h and 24 h dose), 96 h (72 h after the last of 0 h and 24 h dose) and 144 h (120 h after the last of 0 h and 24 h dose). Tumors from αCD137-treated mice were harvested at 144 h after treatment initiation. Tumors from vehicle treated mice were harvested 24 h after the 0 h dose and at 144 h (120 h after the last of 0 h and 24 h dose). RNA was isolated from tumor tissues using RNAeasy kit (Qiagen) and transcriptional analysis was performed using nCounter Mouse PanCancer IO 360 panel (Nanostring) from 100 ng RNA/tumor. Data were analyzed using the nSolver Analysis Software with advanced analysis probe set ns_mm_io_360_v1.0 (Nanostring).

Data set [4] relates to MC38 #13 cells (MC38 cells engineered to overexpress Nectin-4). Nature of the data set: efficacy study BT7480 with anti-PD-1 and anti-Ctla-4, MC38 #13 tumor growth and survival. The class given is in vivo, C57BL/6J-huCD137 mice. Particulars: i.p. BIW for 2 weeks, 1 mg/kg BT7480, 5 mg/kg antibodies, by day 33. The protocol: For tumor growth analysis, 6-8 week old female C57BL/6J-huCD137− mice (Biocytogen) were implanted subcutaneously with 1×10+e6 MC38 #13 cells (MC38 cells engineered to overexpress Nectin-4). Mice were randomized into treatment groups when average tumor volumes reached around 100 mm^3 and were treated intraperitoneally with vehicle (25 mM histidine, 10% sucrose, pH7), 1 mg/kg BT7480, 5 mg/kg anti-PD-1 (RMP 1-14), 5 mg/kg anti-Ctla-4 (9H10) or BT7480/anti-PD-1 and BT7480/anti-Ctla-4 combinations. Treatments were given twice weekly (BIW) for 2 weeks, and tumor growth was monitored by caliper measurements until day 33 after treatment initiation. Animals with >2000 mm^3 tumors were sacrificed as they had reached the Humane Endpoint.

For data set [5], the system named is MC38 tumor tissue. The data set can be described thus: transcriptional (Nanostring) profiling of MC38 tumors, study with BT7455. It counts as in vivo, huCD137-C57B/6J mice. The procedure:
For the transcriptional profiling analyses of the effects of BT7455 in the immune tumor microenvironment, 6-8 week old female huCD137-C57B/6J mice (Biocytogen) mice were implanted subcutaneously with 1×10+E6 MC38 cells. Mice were randomized into treatment groups when average tumor volumes reached around 350 mm^3 to receive vehicle, BT7455, αCD137 antibody (urelumab analogue) or αPD-1 antibody. BT7455 was dosed intravenously at 8 mg/kg (in 25 mM histidine HCl, 10% sucrose, pH7; Vehicle) at 0 h and 24 h and urelumab analogue and αPD-1 antibody were dosed intraperitoneally at 2 mg/kg (urelumab analogue) or 10 mg/kg (αPD-1 antibody) in PBS at 0 h. Tumors from vehicle, BT7455, urelumab analogue and αPD-1 antibody-treated mice were harvested at 24 h, 48 h and 144 h after treatment initiation. RNA was isolated from tumor tissues using RNAeasy kit (Qiagen) and transcriptional analysis was performed using nCounter Mouse PanCancer IO 360 panel (Nanostring) from 100 ng RNA/tumor. Data were analyzed using the nSolver Analysis Software with advanced analysis probe set ns_mm_io_360 v1.0 (Nanostring).

The test system of data set [6] is MC38 tumor. The data set can be described thus: MC38 tumor model in mice (BCY13272). It counts as in vivo.
Data set [7] concerns MC38 tumor. The data set can be described thus: efficacy study BCY12491 and Pembrolizumab combination, MC38 tumor growth. It counts as in vivo, huCD137/huPD-1-C57B/6J mice. The procedure: For tumor growth analysis, 6-8 week old female huCD137/huPD-1-C57B/6J mice (Biocytogen) mice were implanted subcutaneously with 1×10^6 MC38 cells. Mice were randomized into treatment groups when average tumor volumes reached around 92 mm^3 and were treated intravenously with vehicle (25 mM histidine, 10% sucrose, pH7), 5 mg/kg BCY12491 (0, 24 h) or intraperitoneally with 3 mg/kg anti-PD-1 antibody Pembrolizumab or a combination of BCY12491 and Pembrolizumab. Combination treatments were given with three different dosing schedules: BCY12491 and Pembrolizumab treatment initiating at the same time on day 0, BCY12491 treatment initiating on […] and Pembrolizumab treatment initiating on day 5, or Pembrolizumab treatment initiating of day 0 and BCY12491 treatment initiating on day 5. Treatments were given weekly for four doses and tumor growth was monitored by caliper measurements.

For data set [8], the system named is MC38 tumor tissue. The data set can be described thus: transcriptional (Nanostring) analysis of MC38 tumors, profiling study with BCY12491. The class given is in vivo, huCD137-C57B/6J mice. Particulars: Q3D for three doses, Day 6, vs vehicle, 15 mg/kg i.v. peptides, 2 mg/kg i.p. antibody. The protocol:
(§1) For the transcriptional and immunohistochemical (IHC) analyses, 6-8 week old female huCD137-C57B/6J mice (Biocytogen) mice were implanted subcutaneously with 1×10^6 MC38 cells. Mice were randomized into treatment groups when average tumor volumes reached around 240 mm^3 and were treated intravenously with vehicle (25 mM histidine, 10% sucrose, pH7), 15 mg/kg BCY12491, 15 mg/kg BCY13626 (non-binding control) or intraperitoneally with 2 mg/kg anti-CD137 antibody urelumab. Treatments were given Q3D for three doses, tumor growth was monitored by caliper measurements and tumor tissues were harvested 1 hour after the last dose on Day 6. Part of the tumor tissue was used for RNA isolation for transcriptional analysis and a part of the tumor tissue was used for formalin-fixed paraffin embedded (FFPE) sample preparation for IHC analysis. RNA was isolated from tumor tissues using RNAeasy kit (Qiagen) and transcriptional analysis was performed using nCounter Mouse PanCancer IO 360 panel (Nanostring) from 100 ng RNA/tumor. Data were analyzed using the nSolver Analysis Software with advanced analysis probe set ns_mm_io_360_v1.0 (Nanostring). CD8+ tumor infiltrating cells were stained in FFPE tissue sections using anti-mouse CD8 antibody (Abcam, #ab217344) and Ventana Discovery OmniMap anti Rabbit-HRP Kit (Ventana #760 4310).

Data set [9] concerns MC38 tumor tissue. Nature of the data set: IHC analysis for CD8+ cells in MC38 tumor tissue, study with BCY12491. The class given is in vivo, huCD137-C57B/6J mice. Particulars: Q3D for three doses, Day 6, vs vehicle or non-binder. The procedure:
as §1

These results are taken from patent US20240325554A1, “METHODS FOR TREATING CANCER” (Bicycle Tx Limited, priority 2021, published 2024).

Entries after “also recorded” stand apart in the source; their conditions may differ. Numbered stars: 1 amine (or outer) side, 2 acyl side, 3 side chain; on linkers, the order of the positions; unused ones are H or OH. Bridge positions count the residues as written; N and C are the ends. Square brackets hold non-standard residues; d marks the D form. I, II: the chains in the order shown. X2 = O=C(CCOCCOCCOCCN(CCOCCOCCOCCn1cc(CCC(=O)[*:2])nn1)CCOCCOCCOCCn1cc(CCC(=O)[*:3])nn1)[*:1]; TATA = O=C(CC[*:1])N1CN(C(=O)CC[*:2])CN(C(=O)CC[*:3])C1; X1 = CC(C)[C@H](N[*:1])C(=O)C[C@@H](CC(N)=O)C(=O)[*:2]; X3 = O=C(CC[*:1])N1CN(C(=O)CC[*:3])CN(C(=O)C[*:2])C1; d1Nal = N[C@H](Cc1cccc2ccccc12)C(=O)O; Hyp = O=C(O)[C@@H]1C[C@@H](O)CN1; hArg = N=C(N)NCCCC[C@H](N)C(=O)O; tBuAla = CC(C)(C)C[C@H](N)C(=O)O; Nle = CCCC[C@H](N)C(=O)O

T1 sequence (Q07011 24-255): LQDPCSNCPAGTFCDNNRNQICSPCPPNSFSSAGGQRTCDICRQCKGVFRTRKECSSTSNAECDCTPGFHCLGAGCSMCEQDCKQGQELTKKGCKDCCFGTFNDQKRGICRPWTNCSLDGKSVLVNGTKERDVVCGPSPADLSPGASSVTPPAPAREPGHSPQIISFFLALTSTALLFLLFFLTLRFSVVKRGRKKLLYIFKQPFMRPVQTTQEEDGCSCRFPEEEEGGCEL

For the compound `CCCC[C@@H]1NC(=O)[C@H](Cc2ccc(O)cc2)NC(=O)[C@@H]2CCCN2C(=O)[C@H](CC(=O)O)NC(=O)[C@H](C)NC(=O)[C@H](Cc2ccccc2)NC(=O)[C@@H]2CSCCC(=O)N3CN(CN(C3)C(=O)CCSC[C@@H](C(=O)N[C@@H](C)C(N)=O)NC1=O)C(=O)CCSC[C@H](NC(C)=O)C(=O)N[C@@H](CC(C)(C)C)C(=O)N1CCC[C@H]1C(=O)N[C@@H](CCC(=O)O)C(=O)N[C@H](CCCCNC(=O)CCc1cn(CCOCCOCCOCCN(CCOCCOCCOCCC(=O)N[C@H]3CSCCC(=O)N4CN5CN(C4)C(=O)CCSC[C@H](NC(=O)[C@@H](CC(=O)O)NC(=O)[C@H](Cc4cccc6ccccc46)NC(=O)[C@@H]4CCCN4C3=O)C(=O)N[C@@H](CCSC)C(=O)N[C@@H](CCCCNC(=N)N)C(=O)N[C@@H](CC(=O)O)C(=O)N[C@@H](Cc3c[nH]c4ccccc34)C(=O)N[C@@H](CO)C(=O)N[C@@H]([C@@H](C)O)C(=O)N3CCC[C@H]3C(=O)N3C[C@H](O)C[C@H]3C(=O)N[C@@H](Cc3c[nH]c4ccccc34)C(=O)N[C@H](C(N)=O)CSCCC5=O)CCOCCOCCOCCn3cc(CCC(=O)NCCCC[C@H]4NC(=O)[C@H](CCC(=O)O)NC(=O)[C@@H]5CCCN5C(=O)[C@H](CC(C)(C)C)NC(=O)[C@@H](NC(C)=O)CSCCC(=O)N5CN6CN(C5)C(=O)CCSC[C@H](NC(=O)[C@H](Cc5ccc(O)cc5)NC(=O)[C@@H]5CCCN5C4=O)C(=O)N[C@@H](Cc4ccccc4)C(=O)N[C@@H](C)C(=O)N[C@@H](CC(=O)O)C(=O)N4CCC[C@H]4C(=O)N[C@@H](Cc4ccc(O)cc4)C(=O)N[C@@H](CCCC)C(=O)N[C@H](C(=O)N[C@@H](C)C(N)=O)CSCCC6=O)nn3)nn1)C(=O)N1CCC[C@H]1C(=O)N[C@@H](Cc1ccc(O)cc1)C(=O)N2` [BT7480], the CD137 activation entry at CD137 [1] is given as “strong CD137 activation”. The “IL-2 and IFN-γ cytokine secretion” value on CD137 [2] is “robust IL-2 and IFN-γ cytokine secretion”. Moreover, the “mRNA for T cell chemotactic chemokines/cytokines such as Ccl1, Ccl17 and Ccl24” value in data set [3] is recorded as “significant early (24 hour timepoint) increase”. Further, the “mRNAs for immune checkpoints (Ctla4, Pdcd1, Cd274, Lag3, Havcr2, Pdcd1lg2, Tigit)” value in data set [3] (5 mg/kg) is recorded as “increase in several immune checkpoint mRNAs; also recorded: trend to increase or significant increase”. The “cytotoxic cell score in tumor tissue” value in data set [3] (144 h vs vehicle at 144 h) is “significantly increased”. Moreover, the “Macrophage Cell Score in tumor tissue” value in [3] (by 48 h vs 24 h vehicle readout) is “significant increase”. The “rate of complete responses (CRs)” value in data set [4] is listed as 0/8.

As for “I: A[hArg]DC[Hyp]L[X1]PLCLEP[d1Nal]WTC-NH2 / II: Ac-C[tBuAla]PE[dK]PYCFADPY[Nle]CA-NH2 / III: Ac-C[tBuAla]PE[dK]PYCFADPY[Nle]CA-NH2 (linker I:4-I:10-I:17, II:1-II:8-II:15 via TATA; linker I:N-II:5-III:5 via X2; linker III:1-III:8-III:15 via X3) [BT7455]”, the “mRNAs for immune checkpoints (Ctla4, Pdcd1, Cd274, Lag3, Havcr2, Pdcd1lg2, Tigit)” value in the data set on MC38 tumor tissue [5] (8 mg/kg i.v. 0 h, 24 h) was “increase in several immune checkpoint mRNAs; also recorded: significant increase”. Further, the “mRNA for T cell chemotactic chemokines/cytokines such as Ccl1, Ccl17 and Ccl24” value in the data set on MC38 tumor tissue [5] (8 mg/kg i.v., 24-48 hour timepoint) is recorded as “significant early (24-48 hour timepoint) increase”. In addition, the “cytotoxic cell score in tumor tissue” value in the data set on MC38 tumor tissue [5] (8 mg/kg i.v., vs vehicle or anti-PD-1 or anti-CD137 treated mice) is recorded as “significant increase”. Besides, the “modulation of gene sets (signature scores)” value with MC38 tumor tissue [5] (48 h after treatment initiation, 8 mg/kg BT7455, 10 mg/kg anti-PD-1, 2 mg/kg urelumab analogue) was “significant early (48 hours) modulation of several gene sets”. Moreover, the antitumor effect result with MC38 tumor [6] is recorded as “significant antitumor effect”.

For “Pembrolizumab: anti-PD-1 antibody Pembrolizumab”, the “anti-tumor activity compared to vehicle control” value with MC38 tumor [7] (5 mg/kg BCY12491 QW (0, 24 h), 3 mg/kg Pembrolizumab QW, combination both from day 0, D18, p<0.0001) is “significantly affected the tumor growth; also recorded: significant anti-tumor activity”. For the same compound, the complete responses in the data set on MC38 tumor [7] (monotherapy treatment cohorts, 5 mg/kg BCY12491 (0, 24 h) or 3 mg/kg Pembrolizumab weekly) is on record as 3/10.

As for “anti-CD137 antibody: anti-CD137 antibody urelumab”, in the data set with MC38 tumor tissue [8], the “T cell score in tumor tissue” value is on record as “increased significantly” and the “cytotoxic cell score in tumor tissue” value is listed as “increased significantly”. Besides, in the data set on MC38 tumor tissue [9], the “infiltration of CD8+ cells in tumors (IHC)” value was “Some increase of CD8+ cell infiltration”.
